The values that follow are results of earlier work, collected in patent US20060051384A1, “Antiseptic compositions and methods of use” (priority 2004, published 2006).

The data set deals with methicillin resistant staphylococcus aureus.

Turning to povidone-iodine, the “decrease of activity on addition of nasal secretions” value is recorded as 80-90 wt %.
